{
  "source": "patent US5436137A",
  "about": "“DNA sequence which encodes a peptide capable of promoting acrosome reaction” (Oregon Regional Primate Research Center, priority 1993, dated 1995)",
  "key": {"human sperm": {"system": "human sperm", "assay": "acrosome reaction in capacitated human sperm (acrosome specific monoclonal antibody, FITC fluorescence)", "type": "cell-based", "conditions": "bombesin at a concentration as low as 5 nM, added after overnight capacitation, FIG. 5", "protocol": "(§1) To measure the effects of bombesin on the acrosome reaction, capacitation was conducted in the presence or absence of bombesin. After incubation, samples of sperm were removed to determine the percentage of sperm which had undergone the acrosome reaction as measured with an acrosome specific monoclonal antibody and FITC fluorescence [see Wolf, D. P. Am. J. Reprod. Immunol. 20:106-113 (1989), which is hereby incorporated by reference].\nFor human sperm, capacitation was achieved by overnight incubation of sperm in balanced salt and 0.3% bovine serum albumin, after which bombesin was added to induce the acrosome reaction."}, "monkey sperm": {"system": "monkey sperm", "assay": "acrosome reaction in capacitated monkey sperm (acrosome specific monoclonal antibody, FITC fluorescence)", "type": "cell-based", "conditions": "bombesin at a concentration as low as 5 nM, present during 60 minutes capacitation, FIG. 5", "protocol": "For monkeys, sperm was collected, washed twice in balanced salts, resuspended in lactate/bicarbonate and dibutyryl cAMP, and then incubated for 60 minutes. […] See Wolf, D. P. et al. Mol. Reprod. Dev. 27:261-280 (1990); Lanzendorf, S. E. et al. Mol. Reprod. Dev. 25:61-66 (1990); and Wolf D. P. et al. Biol. Reprod. 41:335-346 (1989). All of these three publications are hereby incorporated by reference.\nas §1"}},
  "data": [
    {"smiles": "CSCC[C@H](NC(=O)[C@H](CC(C)C)NC(=O)[C@H](Cc1cnc[nH]1)NC(=O)CNC(=O)[C@@H](NC(=O)[C@H](C)NC(=O)[C@H](Cc1c[nH]c2ccccc12)NC(=O)[C@H](CCC(N)=O)NC(=O)[C@H](CC(N)=O)NC(=O)CNC(=O)[C@H](CC(C)C)NC(=O)[C@H](CCCN=C(N)N)NC(=O)[C@H](CCC(N)=O)NC(=O)[C@@H]1CCC(=O)N1)C(C)C)C(N)=O", "note": "[bombesin]", "values": [
      {"measurement": "increase in the acrosome reaction", "setting": "human sperm", "result": 2, "unit": "fold"},
      {"measurement": "increase in the acrosome reaction", "setting": "monkey sperm", "result": 2, "unit": "fold"}
    ]}
  ]
}
